Assay results from patent US20230263729A1, “POLY(ETHYLENE GLYCOL)-BLOCK-POLY(PROPYLENE SULFIDE) NANOCARRIER PLATFORM FOR ENHANCED EFFICACY OF IMMUNOSUPPRESSIVE AGENTS” (Northwestern University, priority 2019, published 2023).

Key:
[1] = test system: hair follicles at injection site; test: Alopecia assessment (dorsal photos, H&E histology); assay type: in vivo, C57BL/6J mice
Description: Alopecia Assessment—Dorsal photos were taken weekly to assess for alopecia. At 100-days post-transplantation, the mice were euthanized and skin samples were excised in the dorsal region at the subcutaneous injection site. Skin samples were placed in cassettes, fixed in 4% paraformaldehyde, and embedded in paraffin. Tissue blocks were sectioned at a thickness of […] and stained with hematoxylin and eosin (H&E). Digital images were taken on a Nikon microscope.

red blood cells = conditions: in vivo; cited from earlier work
allogeneic islet graft = test: Intraportal fully-MHC mismatched allogeneic islet transplantation; assay type: in vivo, C57BL/6J mice; conditions: standard dosage: 11 daily injections, 1 mg rapamycin per kg
Method: Allogeneic Islet Transplantation—Diabetes was induced via streptozotocin (IP; 190 mg/kg) injection five days prior to transplantation and confirmed via hyperglycemia (blood glucose>400 mg/dl). Starting the day prior to transplantation, mice were injected with PBS, PS, rapamycin, or rPS (N=3 per group) at 1 mg/kg (or equivalent) in accordance with a standard dosage (11 doses, given daily) or a low dosage (6 doses, given every 3rd day). On the day of transplantation, islets were isolated from Balb/c mice via common bile duct cannulation and pancreas distension with collagenase. Islets isolated from two donors (˜200 mouse islets, ˜175 IEQ) were transplanted to C57B6/J recipients via the portal vein. Body weight and blood glucose concentration were monitored closely for 100 days post-transplantation. Intraperitoneal glucose tolerance test (IPGTT) was performed one-month post transplantation. The animals were fasted for 16 hours before being injected intraperitoneally with 2 g dextrose (200 g/L; Gibco) per kg body weight. Blood glucose concentrations were measured at 0, 15, 30, 60- and 120-minutes post-injection.

[2] = in vivo; cited from earlier work
[3] = test system: genes associated with rapamycin side effects; test: Single cell RNA sequencing of spleen macrophages and CD4+ regulatory T cells; assay type: in vivo, C57BL/6J mice; conditions: 1 mg/kg s.c. 11 days
Method: Single Cell RNA Sequencing—Healthy C57BL/6J mice were subjected to a “standard dosage regime.” Animals were injected subcutaneously for 11 days with rapamycin (in 0.2% CMC) or rPS at a dose of 1 mg/kg. Equivalent dose of 1×PBS or PS were injected as controls. After 11 days, the mice were sacrificed, and the liver and spleen were excised. The organs were processed as was done for flow cytometry. CD4+ regulatory T cells and macrophages were isolated using magnetic sorting (MojoSort; BioLegend). Briefly, cells were first incubated in a cocktail of PE anti-mouse CD169 and PE anti-mouse F4/80 antibodies (BioLegend). After washing, incubation in anti-PE nanobeads (BioLegend) occurred. Macrophages were magnetically sorted from non-macrophages. The non-macrophages cell fraction was then incubated in mouse CD4+ T cell isolation biotin-antibody cocktail (BioLegend) and sorted. The CD4+ T cell fraction was then incubated in APC anti-mouse CD25 antibody (BioLegend), followed by washing, incubation in anti-APC nanobeads (BioLegend) and sorting. RNA was isolated from separated macrophages and CD4+ regulatory T cells using R-Neasy Mini Kit with DNAse digestion (Qiagen), Samples were frozen and shipped to Admera Health where they underwent library preparation using the Lexogen 3′ mRNA-Seq Library Prep Kit FWD HT (Lexogen) and were sequenced on an Illumina sequencer (HiSeq 2500 2×150 bp). For each pair, Read 2 was discarded and only Read 1 was used for downstream data analysis. Sequencing quality was analyzed with FastQC v0.11.5^47 and reads were trimmed and filtered with Trimmomatic v0.3948. One sample from the spleen T cell PBS treatment group and one sample from the spleen T cell rapamycin treatment group were discarded due to low sequencing quality. Reads were aligned with STAR v2.6.0a 49 to the GRCm38.p6 mouse reference genome primary assembly using the GRCm38.p6 mouse reference primary comprehensive gene annotation (https://www.gencodegenes.org/mouse/). Quantification and differential expression was performed with Cuffdiff from Cufflinks v2.2.150-52 again using the GRCm38.p6 mouse reference primary comprehensive gene annotation and a 0.05 FDR. Detailed settings for each software are included in Table S1.

hair follicles, histological analysis ([1]; low dosage): some mature follicles present | injection site alopecia ([1]; low dosage): alopecia was reduced | injection site alopecia ([1]; mice treated with free rapamycin): experienced injection site alopecia | hair follicles, histological analysis ([1]; standard dosage): Only immature follicles
SMILES: CO[C@H]1C[C@@H]2CC[C@@H](C)[C@@](O)(O2)C(=O)C(=O)N2CCCC[C@H]2C(=O)O[C@H]([C@H](C)C[C@@H]2CC[C@@H](O)[C@H](OC)C2)CC(=O)[C@H](C)/C=C(\C)[C@@H](O)[C@@H](OC)C(=O)[C@H](C)C[C@H](C)/C=C/C=C/C=C/1C [rapamycin]
partition into red blood cells (red blood cells): 95% | mice remaining normoglycemic 100 days post transplantation (allogeneic islet graft): 71% | patients impacted by alopecia [2]: approximately 10% | ACAA1 Fold Change ([3]; Spleen CD4+ Regulatory T Cells): −3.833 | CD79A Fold Change ([3]; Spleen CD4+ Regulatory T Cells): −24 | CRKL Fold Change ([3]; Spleen CD4+ Regulatory T Cells): 7.387 | MZB1 Fold Change ([3]; Spleen CD4+ Regulatory T Cells): −24 | PIK3R1 Fold Change ([3]; Spleen CD4+ Regulatory T Cells): −12 | IGF1 Fold Change ([3]; Spleen Macrophages): −9.108 | MGAT1 Fold Change ([3]; Spleen Macrophages): 5.0747 | ZDHHC3 Fold Change ([3]; Spleen Macrophages): −8.143
